Laboratory results: patent US20250032625A1, “HETEROBIFUNCTIONAL MOLECULES AS TEAD INHIBITORS” (Merck Patent GmbH, priority 2021, published 2025)
pKd: −log10 of the molar value. Read-outs that look alike come from different tables or passages of the source.

What was measured:
hsTEAD3 (216-435) = hsTEAD3 (216-435) (Homo sapiens (Human), UniProt Q99594); assay: Thermal shift measurement / Differential Scanning Fluorimetry (DSF); assay type: binding; conditions: 100 uM compound, 2 hours at 4° C., triplicates; read-out: ΔTm TEAD3 216-435
Sequence of hsTEAD3 (216-435) (Q99594 216-435): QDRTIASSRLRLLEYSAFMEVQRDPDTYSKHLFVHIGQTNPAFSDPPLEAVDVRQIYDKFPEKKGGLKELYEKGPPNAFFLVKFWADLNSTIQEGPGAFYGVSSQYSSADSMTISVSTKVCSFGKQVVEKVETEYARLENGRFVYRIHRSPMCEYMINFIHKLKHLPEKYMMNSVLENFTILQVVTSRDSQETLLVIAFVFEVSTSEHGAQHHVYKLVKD
Procedure: (§1) Interaction of exemplary compounds with the various TEAD isoforms TEAD1, TEAD2, TEAD3, and TEAD4 was performed in a DSF assay. YAP-binding domains (YBD) of the four isoforms were subcloned and heterogeneously expressed in E. coli as a host. Initial purification was perfomed by using affinity tags, which got removed by overnight protease treatment. Further purification of TEAD isoforms was performed by Size-Exclusion Chromatography (SEC). Target protein containing fractions were pooled, concentrated with an Amicon (10 KDa MWCO) and quantified using the Bradford assay. Exemplary compound testing in the DSF assay for determining the shift of the TEAD isoform melting temperatures has been performed as described below: DSF was performed in MicroAmpTM EnduraPlateTM Optical 96-Well Clear Reaction Plates (Applied Biosystems, Life Technologies, California, USA) using a QuantStudio 7 Flex Real-Time PCR System (Applied Biosystems). Protein samples were briefly centrifuged before preparation. The final reaction mixture (20 μL of total volume) contained 11.8 μM of […]1 (209-426), 7.3 μM of […]2 (217-447), 7.9 μM of […]3 (216-435) or 11.7 μM of […]4 (217-424), and 2 or 4-fold of Protein Thermal ShiftTM Dye (Applied Biosystems) diluted in protein buffer-20 mM Tris pH 8.0, 150 mM NaCl (+0.5 mM TCEP for TEAD1 experiments). Prior to the addition of the dye, proteins were incubated with either 1 μL DMSO 100% (apo) or 100 uM of each exemplary compound (1 μL at 2 mM in 100% DMSO added to the […] reaction mixture) for 2 hours at 4° C. The melting curve data was recorded from 25 to 90° C. with an increment rate of 0.016° C.s^-1. Excitation and emission filters were applied for Protein Thermal ShiftTM Dye (470 nm and 520 nm, respectively) and for ROX reference dye (580 nm and 623 nm, respectively). The melting temperatures (Tm) were obtained by calculating the midpoint of each transition, using the Protein Thermal Shift SoftwareTM version 1.3. The thermal stability effect of each compound (ΔTm) was calculated by subtracting the calculated Tm in presence and absence (apo) of compound. All samples were tested in triplicates.

hsTEAD1 (209-426) [1] = biological target: T1, hsTEAD1 (209-426) (Homo sapiens (Human), UniProt P28347); assay: as above; assay type: binding; conditions: 100 uM compound, 2 hours at 4° C., triplicates; read-out: ΔTm TEAD1 (209-426)
T1 sequence (P28347 209-426): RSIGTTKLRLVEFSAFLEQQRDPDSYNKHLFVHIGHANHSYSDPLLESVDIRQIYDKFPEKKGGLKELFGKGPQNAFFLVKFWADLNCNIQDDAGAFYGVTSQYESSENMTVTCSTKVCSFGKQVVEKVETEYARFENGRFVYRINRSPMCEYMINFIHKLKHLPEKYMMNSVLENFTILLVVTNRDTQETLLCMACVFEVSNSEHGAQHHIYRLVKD
Procedure: as §1

hsTEAD2 (217-447) = hsTEAD2 (217-447) (Homo sapiens (Human), UniProt Q15562); assay: as above; assay type: binding; conditions: 100 uM compound, 2 hours at 4° C., triplicates; read-out: ΔTm TEAD2 (217-447)
Sequence of hsTEAD2 (217-447) (Q15562 217-447): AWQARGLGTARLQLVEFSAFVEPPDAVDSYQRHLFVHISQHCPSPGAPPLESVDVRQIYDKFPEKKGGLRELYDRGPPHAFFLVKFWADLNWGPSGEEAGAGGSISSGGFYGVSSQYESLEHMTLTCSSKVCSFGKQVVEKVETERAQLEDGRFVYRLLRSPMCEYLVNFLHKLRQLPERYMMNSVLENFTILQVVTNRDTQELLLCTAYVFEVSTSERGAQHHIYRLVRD
Procedure: as §1

hsTEAD4 (217-424) = hsTEAD4 (217-424) (Homo sapiens (Human), UniProt Q15561); assay: as above; assay type: binding; conditions: 100 uM compound, 2 hours at 4° C., triplicates; read-out: ΔTm TEAD4 217-434
Sequence of hsTEAD4 (217-424) (Q15561 217-434): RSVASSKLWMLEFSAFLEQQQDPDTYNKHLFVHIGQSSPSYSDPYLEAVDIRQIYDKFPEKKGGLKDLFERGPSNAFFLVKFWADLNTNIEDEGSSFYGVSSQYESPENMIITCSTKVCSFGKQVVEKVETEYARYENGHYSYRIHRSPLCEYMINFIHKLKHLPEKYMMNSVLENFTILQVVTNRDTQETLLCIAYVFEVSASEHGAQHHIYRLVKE
Procedure: as §1

hsTEAD1 (209-426) [2] = biological target: T1, hsTEAD1 (209-426); assay: Surface Plasmon Resonance (SPR) assay; assay type: binding; conditions: Biacore 4000, 15° C., 1:1 Langmuir model, read-out: KD TEAD1 (209-426)
Procedure: The kinetic and affinity parameters of protein-exemplary compound interactions were evaluated by SPR. hsTEAD1 (209-426) was immobilized onto a CM7 (Series S) sensor chip via the standard amine coupling procedure, at 15° C. Prior to immobilization, the carboxymethylated surface of the chip was activated with 400 mM 1-ethyl-3-(3-dimethylaminopropyl)-carbodiimide and 100 mM N-hydroxysuccinimide for 10 min. hsTEAD1 (209-426) was diluted to 11 μg/mL in 10 mM Bis-Tris at pH 6.5 and immobilized on the activated surface chip for 8 and 10 min, in order to reach 6000 to 9000 response units (RU). The remaining activated carboxymethylated groups were blocked with a 7 min injection of 1 M ethanolamine pH 8.5 after which the surface chip was washed with 0.5% (w/v) sodium dodecyl sulphate and 50 mM glycine. HBS-N, which consists of 10 mM HEPES pH 7.4 and 150 mM NaCl, was used as the background buffer during immobilization. Exemplary compounds were prediluted in DMSO, diluted 1:50 in running buffer (20 mM Tris pH 7.4, 150 mM NaCl, 1 mM DTT, 5 mM MgCl2, 0.1 mM EGTA, 0.05% CHAPS) and injected at ten different concentrations using two-fold dilution series, from 100 μM to 0.2 μM. A DMSO solvent correction (1%-3%) was performed to account for variations in bulk signal and to achieve high-quality data. Interaction analysis cycles consisted of a 240 sec sample injection (30 μL/min; association phase) followed by 600 sec of buffer flow (dissociation phase).
All sensorgrams were processed by first subtracting the binding response recorded from the control surface (reference spot), followed by subtracting of the buffer blank injection from the reaction spot. All datasets were fit to a simple 1:1 Langmuir interaction model to determine the kinetic rate constants, KD. Experiments were performed on a Biacore 4000 (Cytiva, Uppsala, Sweden) at 15° C. and the interactions were evaluated using the provided Biacore 4000 evaluation software.

TEAD1 in SK-HEP1 cells = TEAD1 in SK-HEP1 cells (Homo sapiens (Human), UniProt P28347); assay: TEAD degradation in SK-HEP1 cell line (immunofluorescence); assay type: cell-based
Sequence of TEAD1 in SK-HEP1 cells (P28347 whole entry): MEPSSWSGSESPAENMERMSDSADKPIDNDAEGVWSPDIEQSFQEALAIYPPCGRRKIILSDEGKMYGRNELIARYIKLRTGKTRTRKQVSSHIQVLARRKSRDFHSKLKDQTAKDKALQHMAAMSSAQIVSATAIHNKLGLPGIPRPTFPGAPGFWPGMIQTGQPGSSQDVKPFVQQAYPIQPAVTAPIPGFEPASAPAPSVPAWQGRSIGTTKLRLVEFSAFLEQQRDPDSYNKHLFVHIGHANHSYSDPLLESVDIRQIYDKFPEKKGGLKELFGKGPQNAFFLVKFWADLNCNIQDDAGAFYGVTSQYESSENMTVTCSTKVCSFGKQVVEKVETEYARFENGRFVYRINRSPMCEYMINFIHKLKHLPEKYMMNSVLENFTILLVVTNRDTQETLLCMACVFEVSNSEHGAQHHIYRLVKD
Summary of the method: (§2)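 SK-HEP1 and NCI-H226 cells were treated in duplicate for 16 or 24 h at 37 °C with compound (10 points, 1:3, top 30 µM final). After fixation, TEAD1 was immunostained with anti-TEF1 and per-cell fluorescence quantified by high-content imaging. DC50 from curve fitting.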

TEAD1 in NCI-H226 cells = TEAD1 in NCI-H226 cells (Homo sapiens (Human), UniProt P28347); assay: TEAD degradation in NCI-H226 cell line (immunofluorescence); assay type: cell-based
Sequence of TEAD1 in NCI-H226 cells (P28347 whole entry): as above
Summary of the method: as §2

TEAD1 = TEAD1 (Homo sapiens (Human), UniProt P28347); assay: TEAD degradation assay, 6 h time point, cell line not stated; assay type: cell-based; conditions: after 6 h, read-out: degradation concentration, DC50, after 6 h
Sequence of TEAD1 (P28347 whole entry, canonical isoform): as the sequence (P28347 whole entry) above
Procedure: Degradation of TEAD isoform TEAD1 by exemplary compounds which has been determined at different time points in two different cell lines, SK-HEP1 and NCI-H226: For the assay, SK-HEP1 (ATCC HTB-52) and NCI-H226 (ATCC CRL-5826) cells were treated in duplicates with the test compounds in a 10-point dose, 1:3 dilution steps, with the top concentration starting at 30 uM (final concentration in assay). […] The primary antibody used was Anti-TEF1 (BD, 610293) and the secondary antibody used was Alexa Fluor® 488 Goat Anti-Mouse IgG (H+L) (Molecular Probes, A-11001). Finally, the cell nuclei were co-stained by Hoechst 33258 (Invitrogen, H-3569) and imaged using a high content imager. The amount of TEAD degradation was determined by quantifying the fluorescence intensity levels of Anti-TEF1 in each individual cell per well. DC50 was calculated using curve fitting software Genedata Screener. Cell media: The SK-HEP1 cells were cultured in the following media: MEM, +10% FCS, +1× GlutaMAX, +100 μM NEAA, +10 mM HEPES, +0.5% Pen/Strep. The NCI-H226 cells were cultured in the following media: RPMI 1640, +10% FBS, +1× GlutaMAX, +10 mM HEPES, +0.5% Pen/Strep.

[3] = 16 h incubation, read-out: DC50 SK-HEP1 16 h
[4] = 24 h incubation, read-out: DC50 SK-HEP1 24 h
[5] = 24 hours, ranges, read-out: DC50 SK-HEP1
[6] = 16 h incubation, read-out: DC50 NCI-H226 16 h
[7] = 24 h incubation, read-out: DC50 NCI-H226 24 h
[8] = 24 hours, ranges, read-out: DC50 NCI-H226

Row | ΔTm at 100 µM (hsTEAD3 (216-435)) [°C] | ΔTm at 100 µM (hsTEAD1 (209-426) [1]) [°C] | ΔTm at 100 µM (hsTEAD2 (217-447)) [°C] | ΔTm at 100 µM (hsTEAD4 (217-424)) [°C] | pKd (hsTEAD1 (209-426) [2]) | DC50 (TEAD1 in SK-HEP1 cells; [3]) [nM] | DC50 (TEAD1 in SK-HEP1 cells; [4]) [nM] | DC50 (TEAD1 in SK-HEP1 cells; [5]) [nM] | DC50 (TEAD1 in NCI-H226 cells; [6]) [nM] | DC50 (TEAD1 in NCI-H226 cells; [7]) [nM] | DC50 (TEAD1 in NCI-H226 cells; [8]) [nM] | DC50 (TEAD1) [nM] | SMILES
1 | 0.6 | 2.9 | 1 | 0 | 6.49 | 2000 | 2000 | 100 to 1000 | 700 | 900 | 1000 to 3000 | – | Cc1ncsc1-c1ccc(CNC(=O)[C@@H]2C[C@@H](O)CN2C(=O)[C@@H](NC(=O)CCCCCC(=O)NCCOCCOCCNC(=O)c2ccc3c(c2)c2cn(C)nc2n3-c2ccc(C(F)(F)F)cc2)C(C)(C)C)cc1 [Compound 4, N-[(2S)-1-[(2S,4R)-4-hydroxy-2-({[4-(4-methyl-1,3-thiazol-5-yl)phenyl]methyl}carbamoyl)pyrrolidin-1-yl]-3,3-dimethyl-1-oxobutan-2-yl]-N′-(2-{2-[2-({2-methyl-8-[4-(trifluoromethyl)phenyl]-2H,8H-pyrazolo[3,4-b]indol-5-yl}formamido)ethoxy]ethoxy}ethyl) heptanediamide]
2 | – | – | – | – | – | 220 | 280 | 100 to 1000 | 200 | 300 | 100 to 1000 | 280 | Cc1ncsc1-c1ccc([C@H](C)NC(=O)[C@@H]2C[C@@H](O)CN2C(=O)[C@@H](NC(=O)CCCCCc2cn(CCCCCCCNC(=O)c3ccc4c(c3)c3cn(C)nc3n4-c3ccc(C(F)(F)F)cc3)nn2)C(C)(C)C)cc1 [Compound 29, (2S,4R)-1-[(2S)-3,3-dimethyl-2-(6-{1-[7-({2-methyl-8-[4-(trifluoromethyl)phenyl]-2H,8H-pyrazolo[3,4-b]indol-5-yl}formamido)heptyl]-1H-1,2,3-triazol-4-yl}hexanamido)butanoyl]-4-hydroxy-N-[(1S)-1-[4-(4-methyl-1,3-thiazol-5-yl)phenyl]ethyl]pyrrolidine-2-carboxamide]
